Tests used:
Format in all cases: biochemical
CDK9/CyclinT1 = CDK9/CyclinT1 (Homo sapiens, UniProt P50750); test: CDK9/CyclinT1 Mobility Shift Assay (Caliper, Table B); parameters: Wild-type, full length CDK9 in complex with wildtype, CyclinT1 (1-259): Biortus Cat #BP480/792/691; purchased Biortus BP480/792/691; conditions: read-out: CDK9/Cyclin T1 Caliper Ki: Average Ki
Method in brief: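 Full-length wild-type CDK9 with CyclinT1 (1-259) and fluorescent peptide substrate, pre-incubated with compound 30 min at room temperature in Hepes/Brij-35/MgCl2/EGTA/BSA/DTT buffer; ATP added, 30 min reaction, EDTA stop. Substrate/product separated by microfluidic mobility shift; percent inhibition fit to four-parameter curve, IC50 converted to Ki by Cheng-Prusoff using Kmapp.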

CDK6/CyclinD3 = biological target: T1, CDK6/CyclinD3 (Homo sapiens, UniProt Q00534); test: CDK6/Cyclin D3 Mobility Shift Assay (Caliper, Table B); conditions: read-out: CDK6/CCND3 Caliper Ki: Average Ki
T1 construct: Wild-type, full length CDK6 in complex with wildtype, full length CyclinD3: Carna Cat #04-107; purchased Carna 04-107
T1 sequence (Q00534 whole entry): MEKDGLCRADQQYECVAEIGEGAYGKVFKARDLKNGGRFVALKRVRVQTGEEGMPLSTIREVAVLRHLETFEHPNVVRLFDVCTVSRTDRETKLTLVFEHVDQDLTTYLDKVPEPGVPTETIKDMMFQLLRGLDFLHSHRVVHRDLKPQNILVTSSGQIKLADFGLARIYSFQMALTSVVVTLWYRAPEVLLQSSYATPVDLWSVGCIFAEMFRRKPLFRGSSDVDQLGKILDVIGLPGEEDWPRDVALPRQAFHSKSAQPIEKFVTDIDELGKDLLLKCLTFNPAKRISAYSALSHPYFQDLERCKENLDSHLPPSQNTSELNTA
T1 sequence (P30281 whole entry partner): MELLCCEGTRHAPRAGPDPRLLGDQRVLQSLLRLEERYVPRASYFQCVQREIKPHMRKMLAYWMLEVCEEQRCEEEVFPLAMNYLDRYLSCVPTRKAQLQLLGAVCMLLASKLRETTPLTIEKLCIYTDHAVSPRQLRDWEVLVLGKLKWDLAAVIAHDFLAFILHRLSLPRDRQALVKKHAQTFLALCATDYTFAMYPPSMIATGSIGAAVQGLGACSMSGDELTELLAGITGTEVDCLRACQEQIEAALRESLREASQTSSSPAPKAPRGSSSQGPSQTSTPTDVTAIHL
Method: 10 nL of 2000× compound in 100% DMSO is added to a 384-well polypropylene assay plate. 15 μL of 1.3×CDK6/D3 and 1.3× fluorescent substrate (Wild-type, full length CDK6 in complex with wildtype, full length CyclinD3: Carna Cat #04-107 and FL-Peptide 34: PerkinElmer Cat #760643) diluted in kinase buffer (50 mM Hepes, 0.01% Brij-35, 10 mM MgCl2, 1 mM EGTA, 0.05% BSA, and 2 mM DTT) is added to the plates on top of the compound, mixed, and pre-incubated for 30 minutes at room temperature. The fluorescently labeled peptide substrate is phosphorylated by CDK6/D3 upon ATP hydrolysis. Following the incubation, 5 μL of 4×ATP diluted in kinase buffer is added to the plate to initiate the reaction. Following the 30-minute incubation, the reaction is stopped by adding 75 μL of stopping buffer containing 0.5 M EDTA.
(§1) The assay plate is then read on a Lab Chip EZ Reader which separates the fluorescently labeled substrate and product peptides through a mobility difference. The phosphorylation of the substrate imparts a negative charge, which allows differences in separation as both are pulled through the microfluidic chip. The ratio of substrate and product values are used to generate percent conversion. These raw percent conversion values are normalized to calculate percent inhibition, which are fit to a four-parameter logistic curve and IC50 values are calculated. IC50 values are converted to Ki through using substrate and Km^app values, and the Cheng-Prusoff equation.

CDK2/CyclinA2 [1] = biological target: T2, CDK2/CyclinA2 (Homo sapiens, UniProt P24941); test: CDK2/Cyclin A2 Mobility Shift Assay (Caliper, Table B); conditions: for Ki: Caliper mobility shift, 10xKm, read-out: CDK2/CCNA2 Caliper 10xKm Ki: Average Ki
T2 construct: Wild-type, full length CDK2 in complex with wildtype, full length CyclinA2: Carna Cat #04-103; purchased Carna 04-103
Method: 10 nL of 2000× compound in 100% DMSO is added to a 384-well polypropylene assay plate. 15 μL of 1.3×CDK2/A2 and 1.3× fluorescent substrate (Wild-type, full length CDK2 in complex with wildtype, full length CyclinA2: Carna Cat #04-103 and FL-Peptide 18: PerkinElmer Cat #760362) diluted in kinase buffer (50 mM Hepes, 0.01% Brij-35, 10 mM MgCl2, 1 mM EGTA, 0.05% BSA, and 2 mM DTT) is added to the plates on top of the compound, mixed, and pre-incubated for 30 minutes at room temperature. The fluorescently labeled peptide substrate is phosphorylated by CDK2/A2 upon ATP hydrolysis. Following the incubation, 5 μL of 4×ATP diluted in kinase buffer is added to the plate to initiate the reaction. Following the 30-minute incubation, the reaction is stopped by adding 75 μL of stopping buffer containing 0.5 M EDTA.
as §1

CDK2/CyclinA2 [2] = biological target: T2, CDK2/CyclinA2; test: CDK2/CyclinA2 ChEF Assay (AQT, Table C); conditions: 10xKm
Method: 16 nL of 1000× compound in 100% DMSO is added to a 384-well low volume, black assay plate. 12 μL of 1.3×CDK2/CyclinA2 (Wild-type, full length CDK2 in complex with wildtype, full length CyclinA2: Carna Cat #04-103 diluted in assay buffer (54 mM Hepes, 0.012% Brij-35, 10 mM MgCl2, 0.55 mM EGTA, 1% Glycerol, 0.02% BSA, and 1.2 mM DTT) is added to the plates on top of the compound and pre-incubated for 30 minutes at room temperature. Following the incubation, 4 uL of 4×Sox-chromophore (CSox) labeled peptide substrate (AQT0297, AssayQuant) & ATP diluted in assay buffer is added to the plate to initiate the reaction. The assay is incubated at room temperature for 90 min after initiation. The CSox peptide substrate is phosphorylated by CDK2/A2 upon ATP hydrolysis.
The fluorescent intensity measurement of the assay plate is read on a microplate reader once the assay is initiated and again at the completion of the assay. Phosphorylation of the CSox-based peptide substrate sensor results in an immediate increase in fluorescence. These raw fluorescence intensity values are normalized to calculate percent inhibition, which are fit to a four-parameter logistic curve and IC50 values are calculated. IC50 values are converted to Ki using substrate, KM^app values, and the Cheng-Prusoff equation.

Chain of CDK9/CyclinT1 (P50750 whole entry): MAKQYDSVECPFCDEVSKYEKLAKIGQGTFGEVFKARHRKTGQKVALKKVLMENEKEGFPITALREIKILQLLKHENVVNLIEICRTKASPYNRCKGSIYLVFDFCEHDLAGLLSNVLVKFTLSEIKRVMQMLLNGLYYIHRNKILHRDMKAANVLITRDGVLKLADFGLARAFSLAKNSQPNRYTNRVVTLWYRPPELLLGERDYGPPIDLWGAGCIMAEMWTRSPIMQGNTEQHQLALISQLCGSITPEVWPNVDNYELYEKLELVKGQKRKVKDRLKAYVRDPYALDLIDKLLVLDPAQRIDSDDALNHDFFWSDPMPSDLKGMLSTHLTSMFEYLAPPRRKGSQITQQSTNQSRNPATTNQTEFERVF
Chain of CDK9/CyclinT1 (O60563 1-259 partner limits assumed): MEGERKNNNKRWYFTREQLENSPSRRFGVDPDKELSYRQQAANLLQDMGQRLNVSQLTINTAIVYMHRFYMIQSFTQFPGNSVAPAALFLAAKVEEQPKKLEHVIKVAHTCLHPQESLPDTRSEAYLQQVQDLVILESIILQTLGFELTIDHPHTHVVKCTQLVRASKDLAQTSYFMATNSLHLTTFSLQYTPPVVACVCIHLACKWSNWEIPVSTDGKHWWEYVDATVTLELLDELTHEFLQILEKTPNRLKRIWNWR

Ki (CDK9/CyclinT1) [nM] | Ki (CDK6/CyclinD3) [nM] | Ki (CDK2/CyclinA2 [1]) [nM] | CDK2/CCNA2 Caliper 10xKm Ki: CDK2/A2 Selectivity over CDK1/B1 (CDK2/CyclinA2 [1]) | CDK2/CCNA2 Caliper 10xKm Ki: CDK2/A2 Selectivity over CDK6/D3 (CDK2/CyclinA2 [1]) | CDK2/CCNA2 Caliper 10xKm Ki: CDK2/A2 Selectivity over CDK9 (CDK2/CyclinA2 [1]) | Ki (CDK2/CyclinA2 [2]; AQT ChEF, read-out: CDK2/CCNA2 AQT10xKm Ki: Average Ki) [nM] | CDK2/CCNA2 AQT10xKm Ki: CDK2/A2 Selectivity over CDK1/B1 (CDK2/CyclinA2 [2]; AQT, selectivity over CDK1/B1) | CDK2/CCNA2 AQT10xKm Ki: CDK2/A2 selectivity over CDK4/D1 (CDK2/CyclinA2 [2]; AQT, selectivity over CDK4/D1) | CDK2/CCNA2 AQT10xKm Ki: CDK2/A2 selectivity over CDK6/D3 (CDK2/CyclinA2 [2]; AQT, selectivity over CDK6/D3) | CDK2/CCNA2 AQT10xKm Ki: CDK2/A2 Selectivity over CDK9 (CDK2/CyclinA2 [2]; AQT, selectivity over CDK9) | SMILES
25 to 100 | 25 to 100 | < 1 | A (A>10) | A (A>10) | A (A>10) |  |  |  |  |  | O=C1NCCCCCCCNS(=O)(=O)c2ccc(c(F)c2)Nc2cc([nH]n2)[C@H]2CC[C@H](C2)O1 [Compound 92]
25 to 100 | ≥ 100 | < 1 | A (A>10) | A (A>10) | A (A>10) | < 1 | A (A>10) | A (A>10) | A (A>10) | A (A>10) | O=C1NCCCCCCNS(=O)(=O)c2ccc(c(F)c2)Nc2cc([nH]n2)[C@H]2CC[C@H](C2)O1 [Compound 91, (1^1S,1^3R,Z)-4^2-fluoro-2^1H-15-oxa-5-thia-3,6,13-triaza-2(5,3)-pyrazola-4(1,4)-benzena-1(1,3)-cyclopentanacyclopentadecaphan-14-one 5,5-dioxide]
≥ 100 | 25 to 100 | < 1 | A (A>10) | A (A>10) | A (A>10) |  |  |  |  |  | O=C1NCCCCNS(=O)(=O)c2ccc(c(F)c2)Nc2cc([nH]n2)[C@H]2CC[C@H](C2)O1 [Compound 99, (1^1S, 1^3R,Z)-4^2-fluoro-2^1H-13-oxa-5-thia-3,6,11-triaza-2(5,3)-pyrazola-4(1,4)-benzena-1(1,3)-cyclopentanacyclotridecaphan-12-one 5,5-dioxide]

Reference: patent US20260200943A1, “COMPOUNDS FOR TREATING CANCER” (Genesis Therapeutics, Inc., priority 2022, published 2026)
